Test results reported in patent US9855239B2, “Methods for the treatment and prevention of age-related retinal dysfunction” (University of Washington, priority 2008, dated 2018).
“Also recorded” adds a separate entry of the source. One block for each molecule: values may come before it.

Tests used:
[1] = system: Lrat−/− and Rpe65−/− knockout mice; conditions: cited from earlier work
[2] = system: C57BL/6 female mice; experiment: Single flash ERG analyses after long-term treatment; format: in vivo, mouse; conditions: 14 months of age, monthly gavage ~80 mg/kg (9-cis-R-Ac: N2 and N3), vs control C2; 80 mg/kg
Text: To evaluate the effects of rod- and cone-mediated light responses after long-term 9-cis-R-Ac treatments, mice were examined by non-invasive ERG methods. The first set of analyses was done at 4 and 10 months of age. Under scotopic conditions, the amplitudes of a-waves decreased with age, especially at high flash intensities (C1 versus C0 group, FIG. 4A, left top panel), whereas the changes in b-waves were less evident (FIG. 4A, right top panel).
The second set of analyses was done at 14 months of age.
(§1) Six groups of mice were studied (FIG. 1B).
(§2) Two weeks after the last gavage with either, 9-cis-R-Ac, all-trans-R-Ac or vehicle, groups of 48 hr dark-adapted mice were analyzed for recovery of dark adaptation after light exposure, purified rhodopsin/opsin and retinoids in the eye and retinal morphology (FIG. 1C; Methods). Mice were exposed to light of intensity 500 cd·m^−2 that bleached ˜90% of rhodopsin, anesthetized and monitored by ERG for one hr to evaluate recovery of dark adaptation. Rhodopsin was purified and rhodopsin/opsin ratios was determined. Retinoid analyses were performed on dissected eyes removed at 0, 10, 30, and 60 min after exposure to the same amount of light. Mice used to evaluate retinal morphology were not exposed to photobleaching prior to analysis.
(§3) ERGs of anesthetized mice were recorded as previously reported.

[3] = system: retina; experiment: Retinal morphology (light and electron microscopy); format: in vivo, mouse; conditions: 10 and 14 months of age
Description: The thickness of each major layer in the retina was also similar between control and treated groups.
For light microscopy, mouse eyecups were fixed with 2.5% glutaraldehyde and 1.6% paraformaldehyde in 0.08 M 1,4-piperazinediethanesulfonate buffer (PIPES) (pH 7.4) containing 2% sucrose for ˜1 hr at room temperature followed by 23 hr at 4° C. Eyecups then were washed with 0.13 M sodium phosphate buffer (pH 7.3) and dehydrated through a CH3OH series and embedded in JB4 glycol metacrylate. Sections (6 μm) were stained by immersion in 5% Richardson's stain for 1.5-2 min at room temperature and destained in 0.13 M sodium phosphate (pH 7.3) until the retinal layers were visible by light microscopy (about 8-15 min). For transmission electron microscopy, mouse eyecups were analyzed as described previously (Maeda, A., et al. J Blot Chem 280, 18822-18832 (2005); Maeda, T., Lem, J., Palczewski, K. & Haeseleer, F. Investigative ophthalmology & visual science 46, 4320-4327 (2005)).

[4] = system: C57BL/6 female mice; experiment: Recovery of ERG response (dark adaptation) after bleach, long-term treatment; format: in vivo, mouse; conditions: 14 months of age, treated (9-cis-R-Ac: N2 and N3) vs C2; 500 cd·m^−2 for 3 min, 60 min dark adaptation
Description: Recovery of the ERG response (dark adaptation) following bleach was measured by monitoring the amplitude of a-waves after retinal exposure to intense constant illumination (500 cd·m^−2, ˜90% bleached rhodopsin) for 3 min. […] Retinoid kinetics in the eyes of each group were quantitatively evaluated during 60 min of dark adaptation after 3 min of bleaching at four subsequent time points of dark adaptation (0, 10, 30, and 60 min). […] Neither 9-cis-retinal nor 9-cis-retinyl esters were found in eyes from untreated groups (data not shown).
as §1, §2, §3

Compound: CC1=C(/C=C/C(C)=C\C=C\C(C)=C\C=O)C(C)(C)CCC1 [9-cis-retinal]
retinal morphology and rod function (single cell recordings, ERG) ([1]; mouse, in vivo, po): preserved retinal morphology and recovery of normal rod function

Compound: CC1=C(/C=C/C(C)=C/C=C/C(C)=C/C=O)C(C)(C)CCC1 [11-cis-retinal]
vision ([1]; intraperitoneal injection, Rpe65−/− mice): improves vision

retinal abnormalities by light microscopy [3]: no major abnormalities
recovery of ERG a-wave response (dark adaptation) after bleach [4]: no significant difference
Compound: CC(=O)OC/C=C(C)/C=C/C=C(C)/C=C/C1=C(C)CCCC1(C)C [all-trans-R-Ac, reference compound]
a- and b-wave amplitudes, scotopic and photopic single flash ERG [2]: no significant difference; also recorded: no effect
